The values that follow come from patent US4923882A, “Novel amine derivatives, salts thereof and an anti-ulcer agent containing the same” (Toyama Chemical Co., Ltd., priority 1982, dated 1990).

Assay [1] relates to Stress ulcer induced by water-immersion. Nature of the assay: Anti-ulcer activity: Stress ulcer induced by water-immersion. The class given is in vivo, Wistar rats. Particulars: for Inhibition percentage / ED50: oral; for Potency ratio: Cimetidine = 1; for ED50: Rattus norvegicus, 15 h, water-immersion stress ulcer, read-out: ID50 (the source's name). The method, then: (iii) Stress ulcer induced by water-immersion
An experiment was carried out according to the method of Takagi et al. [K. Takagi et al., Jap.
Six Wistar rats (male, 230 to 280 g) per group were starved for 24 hours, after which each drug was orally administered. After 30 minutes, the rats were placed in stress cage, immersed in water at 23° C. to the depth of xiphoid, and allowed to stand therein for 15 hours. Thereafter, the stomach of each rat was removed and then fixed with 3% formalin, after which the areas of the ulcers formed were measured under the binocular stereoscopic microscope (10×), and the sum total of the areas was taken as the ulcer index. To a control group was administered 0.5% Tween 80 physiological saline.
The inhibition percentage was determined from the following equation: [formula]

In assay [2] the test system is gastric acid secretion. The assay can be described thus: Inhibitory effect on gastric acid secretion, perfused stomach preparation of anesthetized rat (histamine stimulated). It is filed as in vivo, Wistar strain rats. The note with it: intravenous; for ED100: Rattus norvegicus, cumulative, histamine 30 μg/kg/min, read-out: Dose for complete inhibition; for Duration: time from complete inhibition until pH of perfusate became 4. The method, then:
(i) Perfused stomach preparation of anesthetized rat [according to M. N. Ghosh and H. O. Schild: Brit. J. Pharmacol. 13, 54 (1958)]
Wistar strain rats (male, 200 to 250 g) starved for 18 hours were anesthetized with urethane and then subjected to laparotomy, after which the forestomach region of the stomach of each rat was incised. The whole interior of the stomach was sufficiently washed with physiological saline, and the cut edges were sutured. A silicon tube was inserted into the stomach to a length of about 5 mm from the duodenum side and fixed. Subsequently, the stomach was perfused with physiological saline adjusted to a pH of about 10 with an aqueous sodium hydroxide solution at a constant rate (1 ml/min) through an oral sonde, and the change in pH of the perfusate which had flowed out through the silicone tube was continuously recorded. During the perfusion, histamine (30 μg/kg/min) was continuously injected, as an agent for stimulating gastric acid secretion, through the femoral vein at a rate of 0.3 ml/min. Each drug was intravenously administered when the acid secretion became almost constant (pH 3.3±0.2), and cumulatively administered when the inhibition of acid secretion at each dose reached a plateau.
The number of experiments was three for each dose.

A further assay has as its system Indomethacin ulcer. The assay can be described thus: Anti-ulcer activity: Indomethacin ulcer. It is filed as in vivo, Wistar strain rats. The note with it: for Potency ratio: Cimetidine = 1; for ED50: 5 h, Indomethacin ulcer, read-out: ID50 (the source's name). As for the experimental part: Six Wistar strain rats (male, 200 to 250 g) per group were starved for 24 hours, after which each drug was orally administered, and after 30 minutes, Indomethacin was injected subcutaneously at a dose of 30 mg/kg. After 5 hours, each rat was killed, and the stomach was removed and fixed with 3% formalin, after which the lengths of ulcers formed in the stomach was measured under the binocular stereoscopic microscope (10×), and the sum total of the lengths was taken as the ulcer index. To a control group was administered 0.5% Tween 80 physiological saline. The inhibition percentage was determined from the following equation: [formula]

Another assay has as its system Reserpine ulcer. Nature of the assay: Anti-ulcer activity: Reserpine ulcer. The class given is in vivo, Wistar strain rats. Particulars: oral. As for the experimental part:
An experiment was carried out according to the method of Adami et al. [E. Adami et al., Arch. int.
Ten Wistar strain rats (male, 180 to 200 g) per group were starved for 30 hours, after which each drug was orally administered, and after 1 hour, reserpine was injected subcutaneously at a dose of 10 mg/kg. After 18 hours, the stomach was removed and fixed with 3% formalin, and thereafter the lengths of the ulcers formed in the stomach were measured with callipers. The measured values were converted to the scores described below, and the sum total of the scores was taken as the ulcer index.
That is to say, 1 to 5 pin point ulcers are scored as 1, 6 or more pin point ulcers are scored as 2, ulcers of 1 mm or less in length are scored as 1, ulcers of 1 to 2 mm in length are scored as 2, ulcers of 2 to 4 mm in length are scored as 4, and ulcers of 4 mm or more in length are scored as 8.
(§1) To a control group was administered 0.5% Tween 80 physiological saline. The inhibition percentage was determined from the following equation: [formula]

Assay [3] concerns gastric acid secretion. Nature of the assay: Inhibitory effect on gastric acid secretion, pylorus ligation method (histamine). The class given is in vivo, Wistar strain rats. The note with it: Rattus norvegicus, oral, histamine 25 mg/kg s.c., read-out: Inhibition percentage (gastric acid secretion). As for the experimental part:
Five to six Wistar strain rats (male, 190 to 230 g) per group were starved for 35 hours, after which each drug was orally administered, and after 2 hours, the pylorus of each rat was ligated under ether anesthesia. […] After 3 hours, each rat was killed, after which the cardiac portion was ligated, and the stomach was removed. After 1 ml of distilled water was injected into the stomach, the gastric juice was collected by centrifugation and its volume was measured. The acidity of the gastric juice was measured by titrating 1 ml of the gastric juice with a 0.1N aqueous sodium hydroxide solution, taking pH 7.0 as the end-point. Physiological saline was administered to a control group.
The inhibition percentage of gastric acid secretion was determined from the following equation: [formula]

Assay [4] relates to Mepirizole-induced duodenal ulcer. The assay can be described thus: Anti-ulcer activity: Mepirizole-induced duodenal ulcer. The class given is in vivo, Wistar strain rats. The note with it: for Inhibition percentage / ED50: oral; for Potency ratio: Cimetidine = 1; for ED50: Rattus norvegicus, 18 h, mepirizole-induced duodenal ulcer, read-out: ID50 (the source's name). As for the experimental part: (ii) Mepirizole-induced duodenal ulcer
A test was carried out according to the method of Okabe et al. [S. Okabe et al., Gastrcenterology, 80, 1241 (1981)].
Six Wistar strain rats (male, 200 to 250 g) per group were starved for 24 hours, after which each drug was orally administered, and after 30 minutes, mepirizole was injected subcutaneously at a dose of 200 mg/kg. After 18 hours, the stomach and duodenum were removed and fixed with 3% formalin, after which the areas and depths of the ulcers formed in the duodenum were measured under the binocular stereoscopic microscope (10×). The scores were given in 7 grades depending on the areas and depths of the ulcers, and the sum total of the scores was taken as the ulcer index. The scores were given as follows:
That is to say, the score is 0 at an ulcer area of 0 to 0.2 mm^2, 1 at 0.2 to 1.0 mm^2, 2 at 1 to 3 mm^2, 3 at 3 to 6 mm^2, 4 at 6 to 10 mm^2,5 at 10 mm^2 or more, the ulcer in the condition immediately before perforation is scored as 6, and the ulcer which had caused perforation is scored as 7.
as §1

The subject of assay [5] is isolated guinea pig atrium. Nature of the assay: Effect on isolated guinea pig atrium (histamine-induced heart rate). On the set-up: species or system Hartley guinea pig. The note with it: for Potency ratio: Cimetidine = 1; for IC50: right atrium, 5×10^-6 M histamine, 30° C., read-out: ID50 (the source's name). The method, then: Hartley guinea pig (male, 300 to 400 g) was killed by blood-letting, immediately after which the heart was isolated, and the right atrium was separated in a Krebs-Henseleit solution and used as a preparation. […] The preparation was trained in a bath fluid, and after the heart rate became constant, 5×10^-6 M of histamine was administered. After the heart rate became constant, each drug was administered cumulatively.
The inhibition percentage was determined from the following equation: [formula] HRmin : heart rate before the administration of histamine HRmax : heart rate after the administration of histamine
HRx : heart rate at the time of the administration of each drug.
The number of experiments were five for each dose.

[6] abbreviates: Rattus norvegicus, oral, read-out: Inhibition percentage.

For the compound `CNC(=C[N+](=O)[O-])NCCSCc1ccc(CN(C)C)o1` [Ranitidine, reference compound], the Inhibition percentage in assay [1] (3 mg/kg) was found to be 7%; in assay [1] (10 mg/kg), 80%; in the assay on Reserpine ulcer (30 mg/kg), 33%; in the assay on Reserpine ulcer (100 mg/kg), 40%; in assay [4] (30 mg/kg), 49%; in assay [4] (100 mg/kg) it was 78%. For the same compound, the results for the Potency ratio (in assay [1]; in the assay with Indomethacin ulcer; in assay [4]) were 2.4, 1.8 and 5.1, respectively. The ED50 in assay [1] worked out at 6.4 mg/kg; with Indomethacin ulcer (Rattus norvegicus, oral) it was 15.5 mg/kg; in assay [4] it was 32 mg/kg. Besides, the ED100 with gastric acid secretion [2] is 0.5 mg/kg. This compound also came in with a Duration in the assay on gastric acid secretion [2] of 92 min. Further, the inhibition in vivo at 10 mg/kg is 18% with Indomethacin ulcer (setting [6]) and 56% with gastric acid secretion [3] (10 mg/kg). In addition, the inhibition in vivo at 30 mg/kg in the assay on Indomethacin ulcer (Rattus norvegicus, 30 mg/kg, oral, read-out: Inhibition percentage) came out at 98%; with gastric acid secretion [3] (30 mg/kg), 91%. In addition, in the assay with gastric acid secretion [3], the inhibition in vivo at 3 mg/kg was determined as 17%.
As for `CN(C)Cc1ccc(CSCCNC(=C[N+](=O)[O-])NCC(O)c2ccc(O)cc2)o1` (stereo not drawn) [compound 3, N-{2-[[5-(dimethylamino)methyl-2-furyl]methylthio]ethyl}-N'-[2-hydroxy-2-(4-hydroxyphenyl)ethyl]-2-nitro-1,1-ethenediamine], the Inhibition percentage in assay [1] (1 mg/kg) was found to be 12%; in assay [1] (3 mg/kg), 73%; in assay [1] (10 mg/kg), 83%; in assay [4] (1 mg/kg), 12%; in assay [4] (3 mg/kg), 49%; in assay [4] (10 mg/kg), 97%. Moreover, the Potency ratio in assay [1] is 9.0; in assay [5], 14.7; in the assay with Indomethacin ulcer, 8.1; in assay [4] it was 55.9. In addition, the ED50 is 1.72 mg/kg in assay [1]; 3.4 mg/kg in the assay on Indomethacin ulcer (Rattus norvegicus, oral); 2.9 mg/kg in assay [4]. The IC50 in assay [5] is 228 nM. Further, the ED100 with gastric acid secretion [2] amounted to 0.1 mg/kg. In the assay with gastric acid secretion [2], this compound showed a Duration of 155 min. For the same compound, the inhibition in vivo at 1 mg/kg with Indomethacin ulcer (setting [6]) stood at 20%. In addition, the inhibition in vivo at 3 mg/kg with Indomethacin ulcer (setting [6]) came out at 51%. Moreover, the inhibition in vivo at 10 mg/kg in the assay on Indomethacin ulcer (setting [6]) is 71%.
`CN(C)Cc1ccc(CSCCNC(=C[N+](=O)[O-])NCC(O)c2ccccc2F)o1` (stereo not drawn) [compound 4, N-{2-[[5-(dimethylamino)methyl-2-furyl]methylthio]ethyl}-N'-[2-(2-fluorophenyl)-2-hydroxyethyl]-2-nitro-1,1-ethenediamine]: in assay [5], the Potency ratio is on record as 14.9 and the IC50 was 225 nM. Further, in the assay with gastric acid secretion [2], the ED100 is 0.04 mg/kg and the Duration stood at 220 min. Moreover, the inhibition in vivo at 3 mg/kg in the assay with gastric acid secretion [3] was 75%.
On to `O=[N+]([O-])C=C(NCCCOc1cccc(CN2CCCCC2)c1)NCC(O)c1ccc(F)cc1` (stereo not drawn) [compound 15, N-[2-(4-fluorophenyl)-2-hydroxyethyl]-2-nitro-N'-[3-(3-piperidinomethylphenoxy)propyl]-1,1-ethenediamine], for which the Inhibition percentage in assay [1] (1 mg/kg) was 42%; in assay [1] (3 mg/kg), 69%; in assay [1] (10 mg/kg) it was 83%; in assay [4] (1 mg/kg), 2%; in assay [4] (3 mg/kg) it was 29%; in assay [4] (10 mg/kg), 93%. Moreover, the Potency ratio in assay [1] was found to be 11.5; in assay [5] it was 15.4; in the assay with Indomethacin ulcer it was 68.8; in assay [4], 36.0. Besides, the ED50 in assay [1] is 1.35 mg/kg; in the assay on Indomethacin ulcer (Rattus norvegicus, oral) it was 0.4 mg/kg; in assay [4], 4.5 mg/kg. Moreover, in assay [5], the IC50 was found to be 218 nM. Besides, the ED100 in the assay with gastric acid secretion [2] is 0.06 mg/kg. Further, in the assay with gastric acid secretion [2], the Duration came out at 180 min. Further, the inhibition in vivo at 0.3 mg/kg in the assay with Indomethacin ulcer (Rattus norvegicus, 0.3 mg/kg, oral, read-out: Inhibition percentage) worked out at 37%. Besides, the inhibition in vivo at 1 mg/kg with Indomethacin ulcer (setting [6]) worked out at 88%; with gastric acid secretion [3], 77%. Moreover, the inhibition in vivo at 3 mg/kg with Indomethacin ulcer (setting [6]) came out at 92%. The inhibition in vivo at 10 mg/kg in the assay with Indomethacin ulcer (setting [6]) was found to be 98%.
Take `O=[N+]([O-])C=C(NCCCOc1cccc(CN2CCCCC2)c1)NCC(O)c1ccc2c(c1)OCO2` (stereo not drawn) [compound 17, N-[2-hydroxy-2-(3,4-methylenedioxyphenyl)ethyl]-2-nitro-N'-[3-(3-piperidinomethylphenoxy)propyl]-1,1-ethenediamine]: in assay [5], the Potency ratio was found to be 15.4 and the IC50 was 218 nM. For the same compound, in the assay with gastric acid secretion [2], the ED100 turned out to be 0.15 mg/kg and the Duration was more than 280 min. Besides, in the assay on gastric acid secretion [3], the inhibition in vivo at 3 mg/kg was determined as 70%.
Consider `CCc1ccc(C(O)CNC(=C[N+](=O)[O-])NCCSCc2cc(C)c(CN(C)C)s2)cc1` (stereo not drawn) [compound 42, N-{2-[[5-(dimethylamino)methyl-4-methyl-2-thienyl]methylthio]ethyl}-N'-[2-(4-ethylphenyl)-2-hydroxyethyl]-2-nitro-1,1-ethenediamine], for which, in assay [5], the Potency ratio is given as 14.1 and the IC50 was found to be 237 nM. In the assay with gastric acid secretion [3], the inhibition in vivo at 1 mg/kg was 57%.
